The first experiment deals with MarA (Escherichia coli, UniProt P0ACH5). In words: Selective marker (ccdB) under MarA-activated promoter; cell survival under MarA expression (Example 2). Type of experiment: cell-based. To be noted: inhibition of MarA; cell survival under conditions of MarA expression. Also on record: key: *: good inhibition of MarA; **: very good inhibition of MarA. The source says:
In this example, the expression of a selective marker (e.g., ccdB) is put under the direct control of a promoter activated by MarA (e.g., inaA, galT, or micF). In the absence of MarA, the expression of the selective marker is silent and cells survive. Synthesis of MarA from an inducible plasmid in a bacterial or yeast cell leads to the activation of the inaA promoter, expression of ccdB, and subsequently results in cell death. Compounds that inhibit MarA are those that permit cell survival under conditions of MarA expression. In Table 4, * indicates good inhibition of MarA and ** indicates very good inhibition of MarA.
MarA, sequence (P0ACH5 whole entry, looked up): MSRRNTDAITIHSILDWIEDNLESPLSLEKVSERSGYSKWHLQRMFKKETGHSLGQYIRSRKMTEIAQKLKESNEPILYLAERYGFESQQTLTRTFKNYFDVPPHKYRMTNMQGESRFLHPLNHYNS
Take `CCOC(=O)C1=C(C)N=c2s/c(=C/c3ccc(-c4cccc(C(F)(F)F)c4)o3)c(=O)n2C1c1ccccc1` (centres unmarked) [U, 7-Methyl-3-oxo-5-phenyl-2-[5-(3-trifluoromethyl-phenyl)-furan-2-ylmethylene]-2,3-dihydro-5H-thiazolo[3,2-a]pyrimidine-6-carboxylic acid ethyl ester]: the “MarA inhibition score (cell survival)” value is recorded as “**”. Still for that read-out and setting: for `CCOC(=O)C1=C(C)N=c2s/c(=C\c3ccc(-c4cccc(C(=O)O)c4)o3)c(=O)n2C1c1ccc(N(C)C)cc1` (centres unmarked) [W, 2-[5-(3-Carboxy-phenyl)-furan-2-ylmethylene]-5-(4-dimethylamino-phenyl)-7-methyl-3-oxo-2,3-dihydro-5H-thiazolo[3,2-a]pyrimidine-6-carboxylic acid ethyl ester] the value was “**”.

Regarding `CCOC(=O)C1=C(C)N=c2s/c(=C/c3ccc(-c4ccc(C)c([N+](=O)[O-])c4)o3)c(=O)n2C1c1ccc(N(C)C)cc1` (centres unmarked) [X, 5-(4-Dimethylamino-phenyl)-7-methyl-2-[5-(4-methyl-3-nitro-phenyl)-furan-2-ylmethylene]-3-oxo-2,3-dihydro-5H-thiazolo[3,2-a]pyrimidine-6-carboxylic acid ethyl ester], the “MarA inhibition score (cell survival)” value is on record as “**”. Same read-out and setting: for `O=C1C=Cc2ccccc2/C1=N\Oc1ccc2noc3c2c1C(=O)c1ccccc1-3` [Z, [1,2]Naphthoquinone 1-[O-(6-oxo-6H-anthra[1,9-cd]isoxazol-5-yl)-oxime]] the value was “*”.

In a further experiment the target is SoxS (Escherichia coli, UniProt P0A9E2). In words: Chemiluminescence DNA binding assay, SoxS. Also noted: species or system E. coli. To be noted: relative to ARD.
SoxS, sequence (P0A9E2 whole entry): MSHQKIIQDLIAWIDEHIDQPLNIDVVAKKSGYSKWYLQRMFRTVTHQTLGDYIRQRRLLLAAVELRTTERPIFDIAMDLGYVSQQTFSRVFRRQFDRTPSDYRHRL
For `COc1cccc(-c2nc3ccc([N+](=O)[O-])cc3n2O)c1` [ANU], the “EC50 for SoxS compared with ARD” value is reported as “higher than that of ARD”. Same read-out and setting: for `O=[N+]([O-])c1ccc2nc(-c3ccoc3)n(O)c2c1` [AOW] the value was “higher than that of ARD”; for `O=[N+]([O-])c1ccc2nc(-c3ccco3)n(O)c2c1` [AOX], “higher than that of ARD”. Still for that read-out and setting: the same measure for `NC(=O)c1ccc2nc(-c3ccccc3)n(O)c2c1` [APJ]: “higher than that of ARD”; for `O=C(Nc1ccc(-c2nc3ccc([N+](=O)[O-])cc3n2O)cc1)c1ccccc1` [AQQ]: “higher than that of ARD”.

In the case of `O=[N+](O)c1cccc2c1nc(-c1ccco1)n2O` [AQV], the “EC50 for SoxS compared with ARD” value is reported as “higher than that of ARD”.

Turning to `CN(C)c1ccc(-c2nc3ccc([N+](=O)[O-])cc3n2O)cc1` [ARB], the “EC50 for SoxS compared with ARD” value was “higher than that of ARD”.

For `O=C(NCc1ccc(-c2nc3ccc([N+](=O)[O-])cc3n2O)cc1)c1ccccc1` [ASS], the “EC50 for SoxS compared with ARD” value is “higher than that of ARD”. The same measure, in the same setting: the same measure for `O=C(Nc1ccc(-c2nc3ccc([N+](=O)[O-])cc3n2O)cc1)c1ccc(Cl)cc1` [AST]: “higher than that of ARD”.

Another experiment deals with LcrF (VirF) (Yersinia pseudotuberculosis, UniProt Q663J0). The experiment is described as follows: biochemical.
LcrF (VirF), sequence (Q663J0 1-271): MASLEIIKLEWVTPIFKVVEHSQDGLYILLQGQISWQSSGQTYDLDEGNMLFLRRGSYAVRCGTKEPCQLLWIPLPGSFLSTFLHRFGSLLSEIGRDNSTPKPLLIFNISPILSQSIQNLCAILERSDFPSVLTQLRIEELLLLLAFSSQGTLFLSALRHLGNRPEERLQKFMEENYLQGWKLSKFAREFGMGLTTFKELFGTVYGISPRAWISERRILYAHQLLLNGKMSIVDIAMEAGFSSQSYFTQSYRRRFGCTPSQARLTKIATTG
Conditions: not given
In kind it is binding, Y. pseudotuberculosis.
`COc1ccc(C(=O)Nc2ccc(-c3nc4ccc([N+](=O)[O-])cc4n3O)cc2)cc1` [ASR]: a half-maximal response (EC50) required 18.3 µM. Still for that read-out and setting: for `Cc1cccc(C(=O)Nc2ccc(-c3nc4ccc([N+](=O)[O-])cc4n3O)cc2)c1` [BBT] the value was 27.5 µM. Regarding `Cc1ccccc1C(=O)Nc1ccc(-c2nc3ccc([N+](=O)[O-])cc3n2O)cc1` [BBV], the 50% effective concentration (EC50) (commonly the midpoint of the concentration-response curve) is more than 57.9 µM. The molecule `O=C(Nc1ccc(-c2nc3ccc([N+](=O)[O-])cc3n2O)cc1)c1ccccc1F` [BBW] returned an EC50 of more than 57.3 µM. The same measure, in the same setting: the same measure for `Cc1ccc(/C=C/C(=O)Nc2ccc(-c3nc4ccc([N+](=O)[O-])cc4n3O)cc2)cc1` [BCK]: 0.8 µM; for `COc1ccc(/C=C/C(=O)Nc2ccc(-c3nc4ccc([N+](=O)[O-])cc4n3O)cc2)cc1` [BCL]: 5.1 µM. For the molecule `O=C(/C=C/c1ccc(F)cc1F)Nc1ccc(-c2nc3ccc([N+](=O)[O-])cc3n2O)cc1` [BCO], it took 2.2 µM to reach a half-maximal effect (EC50).

The values are drawn from patent publication US8436031B2 (priority 2004, dated 2013).
